According to patent publication US10322137B2, “Platinum compounds, compositions, and uses thereof” (PLACON THERAPEUTICS, INC., priority 2014, dated 2019):

Experiments:
[1] = test system: MX-1 human breast cancer xenograft (BRCA1 and BRCA2 mutant); assay: MX-1 human breast cancer xenograft study; format: in vivo, mice
Experimental: (§1) Tumor measurements were taken twice weekly, using vernier calipers.
(§2) All statistical analyses were performed using GraphPad PRISM®. Version 6.00.
Tumor volumes of MX-1 induced xenografts in mice were measured after multiple intravenous doses of compound 8 at 15 mg/kg at day 1, day 5, day 8 and day 12 (two times per week for two weeks) for the main study group. […] MX-1 cell line is estrogen receptor negative and Her2 normal. It is BRCA1 and BRCA2 mutant: BRCA1 truncating mutation (3363delGAAA) and BRCA2 mutations (16864A>C, Asn289His, and 22184A>G, Asn991Asp). Satellite groups (n=5) were collected on Day 9 for platinum tumor measurements. […] Only one tumor from the 10 mg/kg group began to grow back at on Day 71, with a volume of 39 mm^3 at end of study, Day 75.

H460 tumors = assay: Tumor platinum levels in H460 tumor-bearing nude mice (ICP-MS); format: in vivo; details: dosed at 4 mg/kg, 24-hour time point
Experimental: To examine the ability of compounds disclosed herein to accumulate in tumors, a murine cancer model was used. Animals were inoculated with 5×10^5 H460 […] lung cancer cells via subcutaneous injection to the flank. Tumors were allowed to reach an approximate volume of ˜500 mm^3. Animals were then randomized into treatment groups of 3 animals per time point and were dosed at 4 mg/kg. The 24-hour time point was used as a benchmark across compounds.
Tumor platinum levels were determined by inductively coupled plasma mass spectrometry (ICP-MS). Tumors were excised from animals and dissolved in fuming nitric acid (60% w/w) by adding four parts nitric acid to 1 part tumor w/w and heating overnight at 60° C. The resulting digest was diluted 1:10 in ICP-MS analysis buffer (1% nitric acid, 2% Triton® X-100), and directly introduced into the ICP-MS unit by peristaltic pump. The end dilution factor for the samples as introduced to the ICP-MS was 50×.

[2] = in vivo
Experimental: (§3) Platinum concentrations in rat (n=3) and dog (n=3) were both measured in a course of 100 hours and 400 hours, respectively.

[3] = in vivo; remark: listed apart in the source
Experimental: as §3

[4] = test system: NCI-H520 lung cancer (NSCLC) model; assay: NCI-H520 multiple dose study: tumor volume, platinum levels, IHC and TUNEL; format: in vivo; details: day 10, FIG. 24 and 25
Experimental: Tumor volumes and platinum levels were tracked over a course of 32 days after treatment of multiple doses of compound 8 (dosed at days 0, 3, 7 and 10) in lung cancer (NSCLC) model NCI-H520. Compound 8 was dosed at 15 mg/kg.
Cell dedifferentiation and apoptosis were studied with immunohistochemical (IHC) and TUNEL stainings.

[5] = test system: A2780 (ovarian) xenografts; details: compound 8 at 20 mg/kg, FIG. 20
Experimental: In these experiments, the ability of compounds to affect the growth of human Calu-6 NSCLC (non-small cell lung cancer) A2780 (ovarian), MIA Paca-2 (pancreatic) and BxPC-3 (pancreatic) xenografts was tested. […] For the MIA Paca-2, BxPC-3 in vivo studies, the tumor material was maintained by serial engraftment in female nude NCR nude mice. To initiate tumor growth, a 1 mm^3 fragment was implanted subcutaneously in the right flank of each test animal. The animals were 9 and 10-11 weeks old at the time the study started for BxPC-3 and MIA Paca-2 models, respectively. For the MX-1 in vivo studies, tumor material was maintained by serial engraftment in athymic nude mice. To initiate tumor growth a 3×3 mm pieces implanted subcutaneously in the right flank of each test animal. The animals were 5 weeks old at the time of implantation.
Tumor measurements were taken twice weekly, using vernier calipers. Tumor volume was calculated using the formula: V=0.5×width×width×length.
When tumors approached a volume of 100 mm^3, mice were randomized into three groups of ten animals. […] Mice were dosed twice weekly for the duration of the study. […] Twenty-four hours after the final dose tumor volumes were measured again for calculation of tumor growth inhibition. […] Final tumor volumes were analyzed using with a one-way analysis of variance and Tukey multiple comparison test.

[6] = biological target: albumin tryptic peptide T3 (Homo sapiens, UniProt P02768); assay: LC MS/MS analysis with albumin tryptic peptide T3; format: binding; details: FIG. 11B
Chain of albumin tryptic peptide T3 (P02768 45-65 limits assumed): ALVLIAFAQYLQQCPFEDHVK
From the text: Signals of T3 endogenous conjugates and T3-Compound 8 conjugates were observed and were evidence that Compound 8 binds to T3.

[7] = test system: BxPC-3 (pancreatic) xenografts, KRAS wild type; assay: BxPC-3 xenograft tumor growth inhibition; format: in vivo, mice; details: Table 4-2; compound 5 at 15 mg/kg iv twice weekly
Experimental: as §1, §2

Molecule: N.N.[Cl][Pt][Cl] [Cisplatin, reference compound]
- TGI % at Day 12 ([1]; 3 mg/kg, day 1, 5, 8, 12): 95.1%
- tumor regrowth at end of study, Day 75 ([1]; cisplatin treated group, 3 mg/kg): no tumor regrowth
- Platinum in tumor (H460 tumors): 0.27 mM/mmole/kg platinum dosed

Molecule: acetate 6-(2,5-dioxo-2H-pyrrol-1(5H)-yl) hexanoate oxaliplatin [Compound 1]
- Platinum in tumor (H460 tumors): 0.57 mM/mmole/kg platinum dosed

Molecule: CC(=O)[O][Pt]([NH2])([NH2])([Cl])([Cl])[O]C(=O)NCCCCCN1C(=O)C=CC1=O [Compound 8]
- Half-life Rat [2]: 44 h
- Half-life Dog [3]: 174 h
- apoptosis and dedifferentiation (IHC, TUNEL) [4]: significant and sustained increase in apoptosis and dedifferentiation
- tumor inhibition versus cisplatin [5]: superior efficacy in tumor inhibition compared to cisplatin
- binding to albumin tryptic peptide T3 [6]: binds to T3
- tumor regrowth at end of study, Day 75 ([1]; 15 mg/kg group): no tumor regrowth
- tumor volume outcome ([1]; day 12): Tumor disappeared
- platinum delivered to the tumor versus cisplatin ([1]; satellite groups, Day 9, FIG. 30): higher concentrations of platinum to the tumor than cisplatin

Molecule: O=C1[O][Pt]2([NH][C@@H]3CCCC[C@H]3[NH]2)[O]C1=O [Oxaliplatin]
- TGI % [7]: 21.0%
- Platinum in tumor (H460 tumors): 0.12 mM/mmole/kg platinum dosed
